{"source": "patent US8212036B2", "about": "“Maleate salts of 6-(5-chloro-2-pyridyl)-5-[(4-methyl-1-piperazinyl)carbonyloxy]-7-oxo-6,7-dihydro-5H-pyrrolo[3,4-b]pyrazine” (Sunovion Pharmaceuticals Inc., priority 2007, dated 2012)", "type_in_all_cases": "physicochemical", "key": {"[1]": {"test": "Aqueous solubility (24 hour equilibrated suspension in water, HPLC)", "conditions": "for pH measured at saturation: saturated suspension in water", "experimental": "The aliquot was diluted and analyzed by HPLC (Waters). The data was compared to a standard curve generated from a set of solutions of known concentrations. The standard curve and the samples were analyzed using a HPLC using the following conditions: […]"}, "[2]": {"test": "Tablet dissolution over time at various pH", "conditions": "for Dependence of dissolution on pH: oral dosage form, media pH 1 to 6.8 and deionized water", "experimental": "Dissolution over time of eszopiclone free base at various pHs (FIG. 1) was compared to that of eszopiclone maleate salt (FIG. 2) in dissolution media at various pH values using Hanson Research SR8-Plus Dissolution Apparatus and C-Technologies Fiber Optic UV Probes at 305 nm (excipients subtracted at 410 nm). The dissolution media used were (a) pH 1 (0.1N HCl) 50 ml of conc HCl mixed in 6 L of water; (b) pH 4.5 acetate buffer (20 mM) 5.88 g of sodium acetate trihydrate dissolved in 6 L of water, pH adjusted to 4.5 with acetic acid; (c) pH 5.5 phosphate buffer (20 mM) 16.3 g of potassium dihydrogen phosphate in 6 L of water. pH adjusted to 5.5 with NaOH; (d) pH 6.8 phosphate buffer (20 mM) 16.3 g of potassium dihydrogen phosphate in 6 L of water. pH adjusted 6.8 with NaOH. A standard dissolution protocol was used. The standard solution (0.006 mg/mL of eszopiclone free base) was prepared by weighing a known amount (˜20 mg) of the free base into a 100 mL volumetric flask. 10 mL of acetonitrile was added into the flask and sonicated until the solids dissolved completely. The solution was cooled to room temperature and made up to the 100 mL mark using media and mixed well. Dilute 3 mL to 100 mL using media. The tables were prepared by transferring 500 mL dissolution media into the 6 vessels. Blank readings were taken for all the probes using media. Standards were read for individual vessels. Probes were washed with media and then inserted back into each vessel. One tablet was transferred into each vessel. The dissolution program was started immediately and readings were taken at 305 nm for 60 min (every 1 min for 20 min and then every 10 min).\nFIG. 1 depicts dissolution profiles of the eszopiclone free base at pH 1 (0.1N HCl), pH 4.5 in buffer, pH 5.5 in buffer, pH 6.8 in buffer and in deionized water. […] FIG. 2 depicts dissolution profiles of the eszopiclone maleate salt at pH 1 (0.1N HCl), pH 4.5 in buffer, pH 5.5 in buffer, pH 6.8 in buffer and in deionized water. It can be seen that the dissolution is greater than 50% within five minutes and greater than 80% at one hour at all pH."}, "[3]": {"test": "Intrinsic dissolution, USP 28 method <1087>", "conditions": "isotonic 50 mM acetate (pH 4.5) buffer at 37° C., 50 rpm", "experimental": "The intrinsic dissolution (Table 3) was determined using USP 28 method <1087> (United States Pharmacopeia, The National Formulary, USP 28, 28th edition, Rockville, […]., 2005). Preparation of each test sample was performed as per USP 28 method <1087> by weighing and transferring the material to the die cavity and compressing for 1 minute at the minimum compression pressure necessary to form a nondisintegrating compacted pellet. The dissolution media used was isotonic 50 mM acetate buffer (pH 4.5) at 37° C. and speed was set at 50 rpm. Each run was halted at 5 min, irrespective of the percent dissolved. Each salt was run in duplicate."}, "[4]": {"conditions": "all pH (pH 1, 4.5, 5.5, 6.8, deionized water)"}}, "data": [{"smiles": "CN1CCN(C(=O)O[C@H]2c3nccnc3C(=O)N2c2ccc(Cl)cn2)CC1.O=C(O)/C=C\\C(=O)O", "note": "[Maleate, (S)-Zopiclone Maleate]", "values": [{"measurement": "pH measured at saturation", "setting": "[1]", "value": 4.4}, {"measurement": "solubility thermodynamic at 24 h", "setting": "[1]; water, 24 hour at ambient", "value": 9000, "unit": "µg/mL"}, {"measurement": "Dissolution at one hour", "setting": "[2]; [4]", "value": "greater than 80%"}, {"measurement": "Dissolution within five minutes", "setting": "[2]; [4]", "value": "greater than 50%"}, {"measurement": "Dependence of dissolution on pH", "setting": "[2]", "value": "dissolve quickly and at substantially the same rate, regardless of the pH"}, {"measurement": "Intrinsic dissolution Average", "setting": "[3]", "value": 1.3, "unit": "mgA/cm^2/min"}, {"measurement": "Intrinsic dissolution Run 1", "setting": "[3]", "value": 1.4, "unit": "mgA/cm^2/min"}, {"measurement": "Intrinsic dissolution Run 2", "setting": "[3]", "value": 1.2, "unit": "mgA/cm^2/min"}]}, {"smiles": "CN1CCN(C(=O)O[C@H]2c3nccnc3C(=O)N2c2ccc(Cl)cn2)CC1", "note": "[Free base, [(9S)-8-(5-chloropyridin-2-yl)-7-oxo-2,5,8-triazabicyclo[4.3.0]nona-1,3,5-trien-9-yl]4-methyl piperazine-1-carboxylate]", "values": [{"measurement": "pH measured at saturation", "setting": "[1]", "value": 7.6}, {"measurement": "Solubility", "setting": "[1]; water, 24 hour at ambient", "value": "0.2^1 mgA/mL"}, {"measurement": "Part of tablet dissolved at one hour", "setting": "[2]; deionized water", "value": "less than one half"}, {"measurement": "Dependence of dissolution on pH", "setting": "[2]", "value": "decreases markedly as the pH rises"}, {"measurement": "Dissolution of tablet", "setting": "[2]; pH 1 (0.1N HCl)", "value": "rapid and complete"}, {"measurement": "Part of tablet dissolved at one hour", "setting": "[2]; pH 6.8 buffer", "value": "less than one half"}, {"measurement": "Intrinsic dissolution Average", "setting": "[3]", "value": 0.5, "unit": "mgA/cm^2/min"}, {"measurement": "Intrinsic dissolution Run 1", "setting": "[3]", "value": 0.6, "unit": "mgA/cm^2/min"}, {"measurement": "Intrinsic dissolution Run 2", "setting": "[3]", "value": 0.5, "unit": "mgA/cm^2/min"}]}]}
